Reference: patent US5554653A, “Inhibitors of HIV protease useful for the treatment of AIDS” (Eli Lilly and Company, priority 1992, dated 1996)
One block for each molecule: values may come before it.

Target: T1, HIV-1 protease (Human immunodeficiency virus type 1 group M subtype B, UniProt P04585)
T1 construct: Purified HIV-1 protease was obtained as described above; made in house; host or cells: E. coli K12 L507/pHP10D (NRRL B-18560)
Experiment: biochemical
Type: biochemical

IC8 (read-out: Fluorescence Assay IC8): 1 µg/mL
Molecule: CC(C)(C)NC(=O)c1ccccc1C[C@@H](O)[C@H](Cc1ccccc1)NC(=O)[C@H](Cc1ccccc1)NC=O [Example 40]

IC52 (read-out: Fluorescence Assay IC52): 0.02 µg/mL
Molecule: CC(C)(C)NC(=O)c1ccccc1C[C@@H](O)[C@H](Cc1ccccc1)NC(=O)[C@H](CC(=O)OCc1ccccc1)NC(=O)C(F)(F)F [Example 41, [2R-(2R*,3S*,6S*)]-N-t-Butyl-2-[2-hydroxy-3-phenylmethyl-4-aza-5-oxo-6-N(trifluoromethylcarbonyl)amino-7-benzyloxycarbonyl]heptyl benzamide]

Molecule: [2R-(2R*,3S*,6S*)]-N-t-Butyl-2-[2-hydroxy-3-phenylmethyl-4-aza-5-oxo-6-N(trifluoromethylcarbonyl)amino-7-naphth-2-ylthio]heptyl benzamide [Example 42]
Fluorescence Assay IC50: 0.74 ng/mL
